Data: ChEMBL document CHEMBL5543128, “Recent Discovery and Development of Inhibitors that Target CDK9 and Their Therapeutic Indications” (J Med Chem, 2024)

What was measured:
[1] = target: T1, Cyclin-dependent kinase 9 (Homo sapiens, UniProt P50750); assay: Inhibition of CDK9 (unknown origin)
[2] = Inhibition of CDK2/CYCA (unknown origin); set-up: species or system Homo sapiens
[3] = Antiproliferative activity against human A-293 cells assessed as reduction in cell viability measured for 48 hrs by MTT assay; format: toxicity, cell-based; conditions: A-293 (AD293) cells
A498 = assay: Antiproliferative activity against human A498 cells assessed as reduction in cell viability incubated for 72 hrs by MTT assay; format: functional, cell-based; conditions: A498, 72 h
MOLM-13 [4] = assay: cells; conditions: Homo sapiens, MOLM-13, 96 h
[5] = target: Receptor-type tyrosine-protein kinase FLT3 (Homo sapiens, UniProt P36888, ITD); assay: Binding affinity FLT3-ITD mutant (unknown origin) assessed as inhibition constant
Receptor-type tyrosine-protein kinase FLT3, sequence (P36888 whole entry, looked up, change not shown): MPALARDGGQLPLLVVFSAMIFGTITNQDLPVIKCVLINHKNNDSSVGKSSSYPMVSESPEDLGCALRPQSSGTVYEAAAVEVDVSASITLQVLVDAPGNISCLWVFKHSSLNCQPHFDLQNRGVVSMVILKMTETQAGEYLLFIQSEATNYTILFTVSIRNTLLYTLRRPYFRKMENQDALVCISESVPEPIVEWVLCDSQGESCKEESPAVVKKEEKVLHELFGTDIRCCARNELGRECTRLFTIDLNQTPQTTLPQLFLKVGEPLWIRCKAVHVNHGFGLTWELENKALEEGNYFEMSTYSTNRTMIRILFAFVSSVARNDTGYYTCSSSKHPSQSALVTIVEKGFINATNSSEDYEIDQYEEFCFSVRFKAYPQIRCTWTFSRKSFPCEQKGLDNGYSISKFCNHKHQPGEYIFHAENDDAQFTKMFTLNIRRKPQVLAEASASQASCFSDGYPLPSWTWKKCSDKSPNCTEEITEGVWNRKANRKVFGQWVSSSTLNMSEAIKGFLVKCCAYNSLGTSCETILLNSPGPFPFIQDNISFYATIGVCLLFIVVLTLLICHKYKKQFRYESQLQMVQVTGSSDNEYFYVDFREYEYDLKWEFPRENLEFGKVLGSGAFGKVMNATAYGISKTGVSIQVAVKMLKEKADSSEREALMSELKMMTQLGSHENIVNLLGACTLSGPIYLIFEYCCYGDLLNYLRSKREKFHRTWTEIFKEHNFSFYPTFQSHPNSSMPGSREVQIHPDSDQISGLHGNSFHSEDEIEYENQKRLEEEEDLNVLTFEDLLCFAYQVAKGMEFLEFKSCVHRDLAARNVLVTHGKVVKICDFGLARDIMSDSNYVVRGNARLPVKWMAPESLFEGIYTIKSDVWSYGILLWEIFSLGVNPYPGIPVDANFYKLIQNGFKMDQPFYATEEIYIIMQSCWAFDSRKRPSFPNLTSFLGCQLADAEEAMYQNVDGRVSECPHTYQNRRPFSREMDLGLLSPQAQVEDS

CDK9/cyclin T1 [6] = target: T2, CDK9/cyclin T1 (Homo sapiens, UniProt P50750); assay: Binding affinity to CDK9/cyclin T1 (unknown origin) assessed as inhibition constant; format: protein-complex assay
T2 sequence (O60563 whole entry): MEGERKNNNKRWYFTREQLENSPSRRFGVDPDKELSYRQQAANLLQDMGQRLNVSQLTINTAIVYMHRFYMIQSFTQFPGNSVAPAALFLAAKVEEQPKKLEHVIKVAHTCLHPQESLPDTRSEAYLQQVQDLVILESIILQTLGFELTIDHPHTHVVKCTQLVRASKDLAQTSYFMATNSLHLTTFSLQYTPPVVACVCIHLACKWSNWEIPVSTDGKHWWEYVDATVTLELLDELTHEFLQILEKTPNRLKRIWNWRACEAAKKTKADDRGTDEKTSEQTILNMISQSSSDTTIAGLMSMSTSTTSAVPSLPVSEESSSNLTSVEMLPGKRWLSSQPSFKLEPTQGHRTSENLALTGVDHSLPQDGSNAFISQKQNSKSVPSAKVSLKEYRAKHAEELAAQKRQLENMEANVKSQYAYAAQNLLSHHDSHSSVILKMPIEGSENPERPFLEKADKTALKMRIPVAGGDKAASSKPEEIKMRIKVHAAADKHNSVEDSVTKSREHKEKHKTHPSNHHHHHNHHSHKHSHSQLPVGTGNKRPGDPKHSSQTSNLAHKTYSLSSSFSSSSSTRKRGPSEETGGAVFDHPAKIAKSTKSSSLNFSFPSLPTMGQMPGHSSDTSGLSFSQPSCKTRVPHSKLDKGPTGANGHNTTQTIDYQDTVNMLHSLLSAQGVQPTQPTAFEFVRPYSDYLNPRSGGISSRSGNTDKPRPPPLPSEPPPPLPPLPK
T2 sequence (P50750 whole entry): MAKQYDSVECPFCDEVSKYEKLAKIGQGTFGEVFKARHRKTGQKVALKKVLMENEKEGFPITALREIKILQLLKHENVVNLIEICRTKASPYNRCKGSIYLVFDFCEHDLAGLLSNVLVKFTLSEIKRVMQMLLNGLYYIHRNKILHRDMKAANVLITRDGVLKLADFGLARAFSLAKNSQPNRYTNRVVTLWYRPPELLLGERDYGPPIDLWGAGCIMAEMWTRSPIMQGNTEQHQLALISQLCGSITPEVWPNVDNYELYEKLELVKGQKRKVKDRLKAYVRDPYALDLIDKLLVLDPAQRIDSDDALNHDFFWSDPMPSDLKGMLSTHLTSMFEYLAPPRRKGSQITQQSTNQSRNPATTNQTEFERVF

MV4-11 [7] = assay: Cytotoxicity against human MV4-11 cells assessed as cell growth reduction measured for 48 hrs by MTT assay; format: functional
[8] = target: T1, Cyclin-dependent kinase 9; assay: Binding affinity to CDK9 (unknown origin) assessed as dissociation constant
[9] = target: Casein kinase I isoform alpha (Homo sapiens, UniProt P48729); assay: Binding affinity to CK1alpha (unknown origin) assessed as dissociation constant
Casein kinase I isoform alpha, sequence (P48729 whole entry, canonical isoform): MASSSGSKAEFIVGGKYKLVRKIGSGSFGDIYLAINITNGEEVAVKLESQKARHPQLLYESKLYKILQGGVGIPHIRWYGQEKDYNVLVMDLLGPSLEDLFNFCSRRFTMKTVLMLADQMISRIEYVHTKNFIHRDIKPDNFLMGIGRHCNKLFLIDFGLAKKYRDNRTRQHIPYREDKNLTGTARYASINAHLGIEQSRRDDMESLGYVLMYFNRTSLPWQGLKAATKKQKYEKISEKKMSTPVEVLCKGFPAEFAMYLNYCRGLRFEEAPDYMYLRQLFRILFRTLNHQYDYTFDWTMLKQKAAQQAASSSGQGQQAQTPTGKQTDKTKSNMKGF

Histone deacetylase 1 = Histone deacetylase 1 (Homo sapiens, UniProt Q13547); assay: Inhibition of HDAC1 (unknown origin) by fluorescence based assay
Histone deacetylase 1, sequence (Q13547 whole entry): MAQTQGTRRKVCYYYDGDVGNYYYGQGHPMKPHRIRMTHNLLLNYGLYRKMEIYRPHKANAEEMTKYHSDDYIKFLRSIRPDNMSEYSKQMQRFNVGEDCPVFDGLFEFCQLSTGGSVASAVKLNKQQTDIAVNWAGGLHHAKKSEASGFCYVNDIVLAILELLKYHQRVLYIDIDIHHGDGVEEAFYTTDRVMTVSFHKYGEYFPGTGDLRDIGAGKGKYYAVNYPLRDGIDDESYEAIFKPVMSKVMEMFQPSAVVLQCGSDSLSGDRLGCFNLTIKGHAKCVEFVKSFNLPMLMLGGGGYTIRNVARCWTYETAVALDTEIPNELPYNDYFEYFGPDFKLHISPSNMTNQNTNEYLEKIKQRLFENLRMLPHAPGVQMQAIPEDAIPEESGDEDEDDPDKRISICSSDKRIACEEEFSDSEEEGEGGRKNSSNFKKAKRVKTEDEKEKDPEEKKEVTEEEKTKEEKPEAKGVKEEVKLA

[10] = target: T1, Cyclin-dependent kinase 9; assay: Inhibition of CDK9 (unknown origin) at 100 nM relative to control
HCT-116 = assay: Antiproliferative activity against human HCT-116 cells assessed as reduction in cell viability incubated for 72 hrs by CCK-8 assay; format: functional, cell-based; conditions: HCT-116, 72 h
K562 = assay: Antiproliferative activity against human K562 cells assessed as reduction in cell viability incubated for 72 hrs by CCK-8 assay; format: functional, cell-based; conditions: K562, 72 h
MCF7 = assay: Antiproliferative activity against human MCF7 cells assessed as reduction in cell viability incubated for 72 hrs by MTT assay; format: functional, cell-based; conditions: MCF7, 72 h
CDK9/cyclin T1 [11] = target: T2, CDK9/cyclin T1; assay: Inhibition of CDK9/cyclin T1 (unknown origin); format: protein-complex assay
[12] = Downregulation of RNAP2 phosphorylation at serine 2 residue in human MV4-11 cells; format: functional, cell-based
MV4-11 [13] = assay: Antiproliferative activity against human MV4-11 cells assessed as reduction in cell growth incubated for 48 hrs by MTT assay; format: functional, cell-based; conditions: MV4-11, 48 h
[14] = Cytotoxicity against human HEK293T cells assessed as reduction in cell viability incubated for 72 hrs by MTT assay; format: toxicity, cell-based, HEK-293T
L02 = assay: Antiproliferative activity against human L02 cells assessed as reduction in cell viability incubated for 72 hrs by MTT assay; format: functional, cell-based; conditions: L02, 72 h
[15] = target: Cyclin-dependent kinase 4 (Homo sapiens, UniProt P11802); assay: Inhibition of CDK4 (unknown origin)
Cyclin-dependent kinase 4, sequence (P11802 whole entry): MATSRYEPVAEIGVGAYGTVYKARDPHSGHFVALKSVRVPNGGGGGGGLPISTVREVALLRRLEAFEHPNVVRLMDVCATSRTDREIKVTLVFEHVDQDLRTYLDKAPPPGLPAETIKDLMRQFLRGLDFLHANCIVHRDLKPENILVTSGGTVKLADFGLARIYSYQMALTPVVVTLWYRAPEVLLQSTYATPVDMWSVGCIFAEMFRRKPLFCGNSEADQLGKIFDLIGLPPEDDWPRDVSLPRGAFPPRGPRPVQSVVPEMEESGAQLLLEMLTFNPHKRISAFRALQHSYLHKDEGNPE

[16] = target: T1, Cyclin-dependent kinase 9
MOLM-13 [17] = assay: Antiproliferative activity against human MOLM-13 cells assessed as reduction in cell viability incubated for 72 hrs by MTT assay; format: functional, cell-based; conditions: MOLM-13, 72 h
OCI-AML-3 = assay: Antiproliferative activity against human OCI-AML-3 assessed as reduction in cell viability incubated for 48 hrs by CellTiter-Glo cell vaibility assay; format: functional, cell-based; conditions: OCI-AML-3, 48 h
[18] = target: Cyclin-dependent kinase 7 (Homo sapiens, UniProt P50613); assay: Inhibition of CDK7 (unknown origin)
Cyclin-dependent kinase 7, sequence (P50613 whole entry): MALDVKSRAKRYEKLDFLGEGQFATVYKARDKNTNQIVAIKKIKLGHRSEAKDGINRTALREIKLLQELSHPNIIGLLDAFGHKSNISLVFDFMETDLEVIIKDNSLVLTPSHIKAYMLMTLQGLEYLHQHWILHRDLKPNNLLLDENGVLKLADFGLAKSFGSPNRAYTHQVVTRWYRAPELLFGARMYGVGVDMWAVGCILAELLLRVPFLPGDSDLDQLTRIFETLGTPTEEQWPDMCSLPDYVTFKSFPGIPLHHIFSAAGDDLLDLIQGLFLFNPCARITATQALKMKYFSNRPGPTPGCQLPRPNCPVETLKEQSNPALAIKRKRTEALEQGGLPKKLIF

MV4-11 [19] = assay: Cytotoxicity against human MV4-11 cells assessed as reduction in cell viability measured for 72 hrs by cellTiter-Glo assay; format: functional, cell-based; conditions: MV4-11, 72 h
[20] = target: T3, Protein cereblon/Cyclin-dependent kinase 9 (Homo sapiens) (UniProt P50750+Q96SW2); assay: PROTAC activity at CRBN/CDK9 in human MV4-11 cells assessed as maximal degradation of CDK9 at 20 uM measured for 6 hrs by Western blot analysis; format: cell-based
T3 sequence (P50750 whole entry, looked up): as the sequence (P50750 whole entry) above
T3 sequence (Q96SW2 whole entry, looked up): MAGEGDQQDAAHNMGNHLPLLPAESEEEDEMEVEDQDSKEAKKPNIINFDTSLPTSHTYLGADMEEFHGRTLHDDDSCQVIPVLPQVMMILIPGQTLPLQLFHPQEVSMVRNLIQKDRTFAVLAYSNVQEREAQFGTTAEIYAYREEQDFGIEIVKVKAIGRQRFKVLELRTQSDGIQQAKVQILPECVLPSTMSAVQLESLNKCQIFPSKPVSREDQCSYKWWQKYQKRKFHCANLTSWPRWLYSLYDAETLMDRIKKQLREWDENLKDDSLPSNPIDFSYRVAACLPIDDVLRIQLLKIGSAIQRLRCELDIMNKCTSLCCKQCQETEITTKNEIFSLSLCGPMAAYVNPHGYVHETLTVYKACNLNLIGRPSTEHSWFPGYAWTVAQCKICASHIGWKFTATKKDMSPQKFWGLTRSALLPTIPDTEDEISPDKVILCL

[21] = target: T3, Protein cereblon/Cyclin-dependent kinase 9 (Homo sapiens); assay: PROTAC activity at CRBN/CDK9 in human MV4-11 cells assessed as maximal degradation of CDK9 at 10 uM measured for 6 hrs by Western blot analysis; format: cell-based
[22] = target: Cyclin-dependent kinase 2/cyclin E1 (Homo sapiens, UniProt P24941); assay: Inhibition of CDK2/cyclin E1 (unknown origin); format: protein-complex assay
CDK7/Cyclin H/MNAT1 = CDK7/Cyclin H/MNAT1 (Homo sapiens, UniProt P50613); assay: Inhibition of CDK7/CycH/MAT1 (unknown origin); format: protein-complex assay
CDK7/Cyclin H/MNAT1, sequence (P51946 whole entry): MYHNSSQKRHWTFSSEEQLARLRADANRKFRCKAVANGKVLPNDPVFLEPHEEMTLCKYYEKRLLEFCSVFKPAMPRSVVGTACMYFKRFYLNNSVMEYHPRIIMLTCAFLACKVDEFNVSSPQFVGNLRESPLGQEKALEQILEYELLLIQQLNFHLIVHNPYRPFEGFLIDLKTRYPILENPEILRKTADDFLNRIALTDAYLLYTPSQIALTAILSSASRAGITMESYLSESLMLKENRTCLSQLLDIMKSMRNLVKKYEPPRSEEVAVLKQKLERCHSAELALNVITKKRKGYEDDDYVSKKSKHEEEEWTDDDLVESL
CDK7/Cyclin H/MNAT1, sequence (P50613 whole entry): as the sequence (P50613 whole entry) above
CDK7/Cyclin H/MNAT1, sequence (P51948 whole entry, further chain): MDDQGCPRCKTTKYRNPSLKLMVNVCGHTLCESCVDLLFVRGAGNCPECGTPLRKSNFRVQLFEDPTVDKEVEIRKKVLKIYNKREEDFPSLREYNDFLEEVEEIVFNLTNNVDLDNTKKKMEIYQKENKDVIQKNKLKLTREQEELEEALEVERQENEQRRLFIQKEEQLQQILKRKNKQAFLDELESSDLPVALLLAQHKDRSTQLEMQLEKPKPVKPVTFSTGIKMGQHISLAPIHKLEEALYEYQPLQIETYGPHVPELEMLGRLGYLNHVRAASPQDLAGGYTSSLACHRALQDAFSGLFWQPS

[23] = target: Cyclin-dependent kinase 5 (Homo sapiens, UniProt Q00535)

T1 sequence (P50750 whole entry): as the sequence (P50750 whole entry) above

Compound: COc1ccccc1-c1ccnc(Nc2ccc3c(c2)CC(=O)C(C(C)=O)C3C)n1 (stereo unspecified)
- IC50 [1]: 184 nM

Compound: COc1cc(O)c2c(=O)cc(-c3ccc(N4CCN(C)CC4)cc3)oc2c1N1CCNCC1
- IC50 [2]: 1180 nM

Compound: N[C@H]1CC[C@H](Nc2cc(-c3cccc(NCc4cccc(F)c4)n3)c(Cl)cn2)CC1
- IC50 at 48 h [3]: 76 nM
- IC50 [1]: < 0.4 nM
- IC50 (A498): 57 nM

Compound: COc1cc(F)ccc1-c1ncnc(Nc2cccc(C[S@](C)(=N)=O)c2)n1 [ATUVECICLIB]
- IC50 (MOLM-13 [4]): 310 nM

Compound: Cc1cnc(NC2CCC(N)CC2)nc1-c1cnc2ccc(-c3ccccc3)cn12 (stereo unspecified)
- Ki [5]: 13 nM
- Ki (CDK9/cyclin T1 [6]): 8 nM

Compound: N[C@H]1CCN(c2c3c(nc4ccc(-c5ccnc(NC(=O)C6CC6)n5)cc24)CCCC3)C1
- IC50 [1]: 2.23 nM

Compound: CCC(CC)c1cc(N[C@H]2CC[C@H](N)C2)n2nccc2n1 [ISTISOCICLIB]
- GR50 (MV4-11 [7]): 0.288 µM

Compound: Cn1ncc(-c2nc(NC3CCC(N)CC3)ncc2F)c1CC1CC1 (stereo unspecified)
- Kd [8]: 5.4 nM
- Kd [9]: 9.8 nM

Compound: Nc1ccccc1NC(=O)c1ccc(NC(=O)c2n[nH]cc2NC(=O)c2c(Cl)cccc2Cl)cc1
- IC50 (Histone deacetylase 1): 98 nM
- inhibition [10]: 98.3%

Compound: COc1ccc(Nc2c(-c3ccoc3)nc3cnccn23)cc1
- IC50 (HCT-116): 11600 nM
- IC50 (K562): 11600 nM
- IC50 (MCF7): 11600 nM

Compound: c1ccc(CNc2c(-c3ccncc3)nc3cnccn23)cc1
- IC50 (HCT-116): 7000 nM
- IC50 (K562): 7000 nM
- IC50 (MCF7): 7000 nM

Compound: CN(C)C/C=C\C(=O)Nc1ccc(C(=O)N[C@H]2CC[C@H](Nc3cc(-c4cccc(NCc5cccc(F)c5)n4)c(Cl)cn3)CC2)cc1
- IC50 (CDK9/cyclin T1 [11]): 196 nM
- IC50 at 48 h [3]: 3230 nM
- IC50 (A498): < 700 nM

Compound: CC(=O)N[C@H]1CCC[C@@H](C(=O)Nc2cc(-c3cnn4c3CC(C)(C)C4)c(Cl)cn2)C1
- IC50 [12]: 13 nM
- IC50 (MV4-11 [13]): 13.7 nM

Compound: Cn1ncc(-c2nc(NC3CCC(N)CC3)ncc2Cl)c1CC1CC1 (stereo unspecified)
- Kd [8]: 4 nM
- Kd [9]: 5.3 nM

Compound: COc1ccc(C(=O)Nc2cc(-c3ccnc(N4CCC(O)CC4)c3)ccn2)cc1
- IC50 at 72 h [14]: > 800 nM
- IC50 (L02): > 800 nM

Compound: CC(C)c1c2cc(-c3ccnc(Nc4ccc5c(N6CCN(C)CC6)ncnc5c4)n3)ccc2nn1C
- IC50 [15]: 2.2 nM
- IC50 [16]: 1.9 nM

Compound: COc1cc(F)ccc1-c1cc(Nc2cc(C[S@](C)(=N)=O)ccn2)ncc1F
- IC50 (MOLM-13 [17]): 29 nM

Compound: CN(C)C(=O)c1cc2cnc(Nc3ccc(S(N)(=O)=O)cc3)nc2n1C1CCCC1
- IC5 [15]: 12 nM

Compound: CCN1C(=O)COc2c(CN3CCOCC3)cc(Nc3nccc(-c4cccnc4)n3)cc21
- IC5 [1]: 6.7 nM

Compound: Cc1ccc([N+](=O)[O-])cc1S(=O)(=O)N(C)/N=C/c1cnc2ccc(Br)cn12
- IC50 (OCI-AML-3): 220 nM

Compound: COCCN[C@H]1CC[C@H](Nc2cc(-c3csc(NCC4(C#N)CCOCC4)n3)c(Cl)cn2)CC1
- IC50 [1]: 2 nM
- IC50 [18]: 172 nM
- IC50 (MV4-11 [19]): 12 nM

Compound: COC[C@H](C)N[C@H]1CC[C@H](Nc2cc(-c3cccc(NCC4(C#N)CCOCC4)n3)c(Cl)cn2)CC1
- IC50 [1]: < 0.514 nM

Compound: O=C1CCC(N2C(=O)c3cccc(OCCCCCOc4ccc(CC(=O)Nc5cc(C6CCC6)[nH]n5)cc4)c3C2=O)C(=O)N1 (stereo unspecified)
- Emax [20]: 65%
- Emax [21]: 56%

Compound: O=c1cc(-c2cccc(O)c2)oc2c1ccc1occc12
- IC50 [22]: > 20000 nM
- IC50 (CDK7/Cyclin H/MNAT1): 93 nM

Compound: COc1ccccc1-c1cc(Nc2cccc(CS(N)(=O)=O)c2)ncn1
- IC50 [2]: 2440 nM

Compound: COc1ccccc1-c1cccc(Nc2cccc(N3CCCNCC3)c2)n1
- IC50 [23]: 574 nM
- IC50 [1]: 16 nM
